Assay results: ChEMBL document CHEMBL1146105, “Synthesis and analgesic activity of secondary amine analogues of pyridylmethylamine and positional isomeric analogues of ABT-594” (Bioorg Med Chem Lett, 2006)

Columns and labels:
Mus musculus [1] = assay: Analgesic activity in mice at 20 mg/kg, sc by acetic acid writhing test; format: functional; settings: route subcutaneous
Mus musculus [2] = assay: Analgesic activity in mice at 10 mg/kg, sc by acetic acid writhing test; format: functional; settings: route subcutaneous
[3] = Toxicity in […] at 20 mg/kg, sc assessed as rate of death; format: organism-based; parameters: dose 20 mg/kg, route subcutaneous; settings: in vivo, read-out: Activity
[4] = Toxicity in […] at 10 mg/kg, sc assessed as rate of death; format: organism-based; parameters: dose 10 mg/kg, route subcutaneous; settings: in vivo, read-out: Activity
Mus musculus [5] = assay: Analgesic activity in mice at 5 mg/kg, sc by acetic acid writhing test; settings: read-out: Inhibition
[6] = Toxicity in rat at 5 mg/kg, sc assessed as rate of death; settings: in vivo

Structure (SMILES) | inhibition in vivo at 20 mg/kg (Mus musculus [1]) | inhibition in vivo at 10 mg/kg (Mus musculus [2]) | mortality [3] | mortality [4] | inhibition in vivo at 5 mg/kg (Mus musculus [5]) | mortality [6]
c1cncc(CNCCc2ccco2)c1 | 50% | 0% | 0% | 0% |  | 
c1cncc(CNCCC2CCCO2)c1 (centres undefined) | 23% | 56% | 0% | 0% |  | 
Clc1ccc(CNCCC2CCCO2)cn1 (centres undefined) | 35% |  | 0% |  |  | 
c1ccc(NCCc2ccco2)nc1 | 0% |  | 0% |  |  | 
Clc1ccc(CNCCc2ccco2)cn1 | 46% | 41% | 0% | 0% |  | 
Clc1ccc(CNC2CCCC2)cn1 | 66% | 37% | 0% | 0% |  | 
c1cncc(NCC2CO2)c1 (centres undefined) | 0% |  | 0% |  |  | 
Clc1ccc(NCC2CCCO2)cn1 (centres undefined) | 0% |  | 0% |  |  | 
Clc1ccc(NCC2CO2)cn1 (centres undefined) | 20.5% |  | 0% |  |  | 
c1ccc(NCCC2CCCO2)nc1 (centres undefined) | 0% |  | 0% |  |  | 
c1ccc(CNC2CCCC2)nc1 | 0% |  | 0% |  |  | 
c1cncc(CNC2CCCC2)c1 | 61% | 0% | 0% | 0% |  | 
CN1CCC[C@H]1c1cccnc1 [NICOTINE] |  | 100% | 100% | 50% | 88% | 25%
